According to ChEMBL document CHEMBL3627608, “Crystal structures of human RIP2 kinase catalytic domain complexed with ATP-competitive inhibitors: Foundations for understanding inhibitor selectivity” (Bioorg Med Chem, 2015):

Experiments:
[1] = target: Homeodomain-interacting protein kinase 3 (Homo sapiens) (UniProt Q9H422); experiment: Inhibition of HIPK3 (unknown origin) at 10 uM after 120 mins P33 radiolabeled kinase activity assay
[2] = target: T1, Cytoplasmic tyrosine-protein kinase BMX (Homo sapiens) (UniProt P51813); experiment: Inhibition of BMX (unknown origin) at 10 uM after 120 mins P33 radiolabeled kinase activity assay
T1 sequence (whole entry): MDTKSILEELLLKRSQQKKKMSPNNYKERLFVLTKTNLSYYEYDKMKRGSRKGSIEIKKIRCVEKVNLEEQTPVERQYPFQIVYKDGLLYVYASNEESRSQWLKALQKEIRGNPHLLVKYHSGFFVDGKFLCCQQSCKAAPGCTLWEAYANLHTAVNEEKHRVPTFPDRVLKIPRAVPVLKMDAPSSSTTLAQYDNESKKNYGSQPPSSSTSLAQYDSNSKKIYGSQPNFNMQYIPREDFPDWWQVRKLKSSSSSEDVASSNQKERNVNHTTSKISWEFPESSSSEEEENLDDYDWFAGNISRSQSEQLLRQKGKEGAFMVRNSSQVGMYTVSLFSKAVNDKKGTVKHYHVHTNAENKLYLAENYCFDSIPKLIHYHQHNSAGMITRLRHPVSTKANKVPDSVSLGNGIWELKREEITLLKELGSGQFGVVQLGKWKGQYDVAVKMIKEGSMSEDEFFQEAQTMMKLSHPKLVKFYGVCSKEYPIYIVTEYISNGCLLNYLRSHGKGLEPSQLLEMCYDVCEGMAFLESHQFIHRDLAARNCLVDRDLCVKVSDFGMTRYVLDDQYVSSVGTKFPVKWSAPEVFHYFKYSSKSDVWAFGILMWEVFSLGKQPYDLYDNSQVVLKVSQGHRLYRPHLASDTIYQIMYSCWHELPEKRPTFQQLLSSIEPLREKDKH

[3] = target: Ribosomal protein S6 kinase alpha-1 (Homo sapiens) (UniProt Q15418); experiment: Inhibition of RSK1 (unknown origin) at 10 uM after 120 mins P33 radiolabeled kinase activity assay
Chain of Ribosomal protein S6 kinase alpha-1 (Homo sapiens) (Q15418 whole entry): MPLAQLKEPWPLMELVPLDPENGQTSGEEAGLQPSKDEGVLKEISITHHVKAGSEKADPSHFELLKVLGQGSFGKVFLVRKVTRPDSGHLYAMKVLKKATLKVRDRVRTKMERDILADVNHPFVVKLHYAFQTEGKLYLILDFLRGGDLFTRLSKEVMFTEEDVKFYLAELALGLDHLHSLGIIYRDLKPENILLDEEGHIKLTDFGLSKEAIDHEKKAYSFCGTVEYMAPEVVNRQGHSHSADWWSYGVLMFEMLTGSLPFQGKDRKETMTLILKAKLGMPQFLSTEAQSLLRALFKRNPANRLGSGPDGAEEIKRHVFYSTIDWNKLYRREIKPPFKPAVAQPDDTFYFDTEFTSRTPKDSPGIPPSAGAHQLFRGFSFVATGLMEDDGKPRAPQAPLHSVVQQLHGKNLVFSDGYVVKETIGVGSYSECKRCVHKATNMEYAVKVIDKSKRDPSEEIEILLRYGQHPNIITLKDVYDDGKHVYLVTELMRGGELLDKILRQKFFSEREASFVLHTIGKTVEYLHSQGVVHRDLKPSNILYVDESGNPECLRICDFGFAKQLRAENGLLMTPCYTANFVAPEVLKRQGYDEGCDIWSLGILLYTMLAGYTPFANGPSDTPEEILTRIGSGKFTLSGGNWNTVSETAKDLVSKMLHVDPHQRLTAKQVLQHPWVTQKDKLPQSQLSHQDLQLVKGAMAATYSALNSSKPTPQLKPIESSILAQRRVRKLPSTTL

[4] = target: Mitogen-activated protein kinase kinase kinase kinase 1 (Homo sapiens) (UniProt Q92918); experiment: Inhibition of HPK1 (unknown origin) at 10 uM after 120 mins P33 radiolabeled kinase activity assay
[5] = target: Tyrosine-protein kinase Blk (Homo sapiens) (UniProt P51451); experiment: Inhibition of BLK (unknown origin) at 10 uM after 120 mins P33 radiolabeled kinase activity assay
Chain of Tyrosine-protein kinase Blk (Homo sapiens) (P51451 2-505 limits assumed): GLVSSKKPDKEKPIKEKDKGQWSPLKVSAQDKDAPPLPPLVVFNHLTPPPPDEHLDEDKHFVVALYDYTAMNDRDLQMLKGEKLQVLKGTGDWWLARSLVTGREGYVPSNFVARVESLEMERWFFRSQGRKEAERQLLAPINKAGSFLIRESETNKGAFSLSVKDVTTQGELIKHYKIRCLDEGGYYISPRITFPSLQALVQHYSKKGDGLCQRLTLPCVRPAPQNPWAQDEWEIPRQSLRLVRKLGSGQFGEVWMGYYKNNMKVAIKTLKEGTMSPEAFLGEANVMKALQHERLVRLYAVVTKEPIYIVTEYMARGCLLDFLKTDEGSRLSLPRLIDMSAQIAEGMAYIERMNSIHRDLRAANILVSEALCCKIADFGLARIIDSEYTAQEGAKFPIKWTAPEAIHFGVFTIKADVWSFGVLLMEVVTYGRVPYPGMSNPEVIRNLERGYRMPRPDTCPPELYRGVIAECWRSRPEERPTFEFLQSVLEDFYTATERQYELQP

[6] = target: Citron Rho-interacting kinase (Homo sapiens) (UniProt O14578); experiment: Inhibition of STK21 (unknown origin) at 10 uM after 120 mins P33 radiolabeled kinase activity assay
[7] = target: Homeodomain-interacting protein kinase 2 (Homo sapiens) (UniProt Q9H2X6); experiment: Inhibition of HIPK2 (unknown origin) at 10 uM after 120 mins P33 radiolabeled kinase activity assay
[8] = target: Proto-oncogene tyrosine-protein kinase ROS (Homo sapiens) (UniProt P08922); experiment: Inhibition of ROS (unknown origin) at 10 uM after 120 mins P33 radiolabeled kinase activity assay
[9] = target: Cyclin-dependent kinase 2 (Homo sapiens) (UniProt P24941); experiment: Inhibition of CDK2 (unknown origin) at 10 uM after 120 mins P33 radiolabeled kinase activity assay
[10] = target: CDK1/Cyclin A (Homo sapiens) (UniProt P06493+P20248); experiment: Inhibition of CDK1/cyclin A (unknown origin) at 10 uM after 120 mins P33 radiolabeled kinase activity assay; type: protein-complex assay
Chain of CDK1/Cyclin A (Homo sapiens) (P06493 whole entry, looked up): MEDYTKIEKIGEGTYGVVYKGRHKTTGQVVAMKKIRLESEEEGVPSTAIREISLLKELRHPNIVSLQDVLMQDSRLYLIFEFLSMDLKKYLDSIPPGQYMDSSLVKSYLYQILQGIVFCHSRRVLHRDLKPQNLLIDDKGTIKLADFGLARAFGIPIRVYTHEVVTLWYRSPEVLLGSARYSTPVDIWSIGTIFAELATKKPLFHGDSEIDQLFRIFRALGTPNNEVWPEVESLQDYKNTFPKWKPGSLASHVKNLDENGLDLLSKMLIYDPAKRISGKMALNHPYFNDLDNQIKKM
Chain of CDK1/Cyclin A (Homo sapiens) (P20248 whole entry, looked up): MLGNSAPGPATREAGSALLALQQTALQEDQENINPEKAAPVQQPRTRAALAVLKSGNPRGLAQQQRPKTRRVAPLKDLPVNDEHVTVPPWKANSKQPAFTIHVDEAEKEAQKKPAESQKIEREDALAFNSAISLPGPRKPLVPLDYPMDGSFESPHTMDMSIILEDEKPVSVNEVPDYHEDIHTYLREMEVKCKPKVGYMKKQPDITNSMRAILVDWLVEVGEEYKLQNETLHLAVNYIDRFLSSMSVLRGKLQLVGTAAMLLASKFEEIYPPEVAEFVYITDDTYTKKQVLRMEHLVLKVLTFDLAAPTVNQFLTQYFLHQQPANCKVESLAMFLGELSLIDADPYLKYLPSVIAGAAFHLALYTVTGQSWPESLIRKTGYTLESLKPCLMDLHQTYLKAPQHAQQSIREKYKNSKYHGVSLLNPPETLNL

[11] = target: Non-receptor tyrosine-protein kinase TYK2 (Homo sapiens) (UniProt P29597); experiment: Inhibition of TYK2 (unknown origin) at 10 uM after 120 mins P33 radiolabeled kinase activity assay
[12] = target: STE20-like serine/threonine-protein kinase (Homo sapiens) (UniProt Q9H2G2); experiment: Inhibition of SLK (unknown origin) at 10 uM after 120 mins P33 radiolabeled kinase activity assay
[13] = target: Mitogen-activated protein kinase kinase kinase 10 (Homo sapiens) (UniProt Q02779); experiment: Inhibition of MLK2 (unknown origin) at 10 uM after 120 mins P33 radiolabeled kinase activity assay
Chain of Mitogen-activated protein kinase kinase kinase 10 (Homo sapiens) (Q02779 whole entry, looked up): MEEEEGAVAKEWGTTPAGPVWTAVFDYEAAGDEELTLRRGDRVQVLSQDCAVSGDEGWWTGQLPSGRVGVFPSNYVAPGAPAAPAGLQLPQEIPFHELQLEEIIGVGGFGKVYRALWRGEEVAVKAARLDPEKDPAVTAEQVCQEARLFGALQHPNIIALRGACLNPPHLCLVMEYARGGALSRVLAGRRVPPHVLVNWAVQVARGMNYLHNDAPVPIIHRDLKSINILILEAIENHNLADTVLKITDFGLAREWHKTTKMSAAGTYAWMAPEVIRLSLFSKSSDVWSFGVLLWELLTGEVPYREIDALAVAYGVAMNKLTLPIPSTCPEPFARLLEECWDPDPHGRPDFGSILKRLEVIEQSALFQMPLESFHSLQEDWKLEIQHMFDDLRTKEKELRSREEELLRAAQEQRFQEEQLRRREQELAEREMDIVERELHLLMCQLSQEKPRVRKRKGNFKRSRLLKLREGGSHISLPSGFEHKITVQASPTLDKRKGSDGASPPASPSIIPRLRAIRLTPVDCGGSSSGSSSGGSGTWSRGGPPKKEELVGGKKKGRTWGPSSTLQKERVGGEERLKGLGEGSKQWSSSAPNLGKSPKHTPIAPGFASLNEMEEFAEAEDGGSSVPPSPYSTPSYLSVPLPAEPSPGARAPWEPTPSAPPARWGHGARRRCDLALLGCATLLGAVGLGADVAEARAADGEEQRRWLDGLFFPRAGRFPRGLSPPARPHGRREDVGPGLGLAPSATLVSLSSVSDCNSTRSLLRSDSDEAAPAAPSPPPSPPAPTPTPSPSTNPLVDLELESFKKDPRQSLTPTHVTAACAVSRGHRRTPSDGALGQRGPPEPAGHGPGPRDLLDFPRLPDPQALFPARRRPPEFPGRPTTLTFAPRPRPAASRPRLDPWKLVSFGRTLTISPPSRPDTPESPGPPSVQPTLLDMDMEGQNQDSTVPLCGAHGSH

[14] = target: cAMP-dependent protein kinase catalytic subunit beta (Homo sapiens) (UniProt P22694); experiment: Inhibition of PKAcbeta (unknown origin) at 10 uM after 120 mins P33 radiolabeled kinase activity assay
[15] = target: Serine/threonine-protein kinase Nek4 (Homo sapiens) (UniProt P51957); experiment: Inhibition of NEK4 (unknown origin) at 10 uM after 120 mins P33 radiolabeled kinase activity assay
Chain of Serine/threonine-protein kinase Nek4 (Homo sapiens) (P51957 whole entry, looked up): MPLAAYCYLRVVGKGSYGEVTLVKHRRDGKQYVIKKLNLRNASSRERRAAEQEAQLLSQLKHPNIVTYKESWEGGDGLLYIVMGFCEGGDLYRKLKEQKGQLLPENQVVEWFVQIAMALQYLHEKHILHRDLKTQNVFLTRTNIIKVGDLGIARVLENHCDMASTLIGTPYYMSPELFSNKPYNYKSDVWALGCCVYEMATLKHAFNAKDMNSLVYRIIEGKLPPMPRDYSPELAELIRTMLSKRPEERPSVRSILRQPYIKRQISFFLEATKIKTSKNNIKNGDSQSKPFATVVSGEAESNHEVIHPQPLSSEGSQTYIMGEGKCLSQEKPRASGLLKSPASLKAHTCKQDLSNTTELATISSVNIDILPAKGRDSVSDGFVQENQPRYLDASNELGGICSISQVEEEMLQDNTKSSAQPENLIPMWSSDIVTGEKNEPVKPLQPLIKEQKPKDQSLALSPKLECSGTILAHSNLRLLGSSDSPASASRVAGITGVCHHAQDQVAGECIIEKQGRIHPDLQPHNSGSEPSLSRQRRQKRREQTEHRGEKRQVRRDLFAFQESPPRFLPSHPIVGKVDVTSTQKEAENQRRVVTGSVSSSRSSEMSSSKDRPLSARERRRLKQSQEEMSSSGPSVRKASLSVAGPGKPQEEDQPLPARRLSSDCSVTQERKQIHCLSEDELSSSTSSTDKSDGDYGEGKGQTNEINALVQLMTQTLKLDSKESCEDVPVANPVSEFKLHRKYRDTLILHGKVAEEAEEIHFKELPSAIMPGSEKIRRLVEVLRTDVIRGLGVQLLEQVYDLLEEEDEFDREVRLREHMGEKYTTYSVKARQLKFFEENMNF

Chain of Homeodomain-interacting protein kinase 3 (Homo sapiens) (Q9H422 whole entry, looked up): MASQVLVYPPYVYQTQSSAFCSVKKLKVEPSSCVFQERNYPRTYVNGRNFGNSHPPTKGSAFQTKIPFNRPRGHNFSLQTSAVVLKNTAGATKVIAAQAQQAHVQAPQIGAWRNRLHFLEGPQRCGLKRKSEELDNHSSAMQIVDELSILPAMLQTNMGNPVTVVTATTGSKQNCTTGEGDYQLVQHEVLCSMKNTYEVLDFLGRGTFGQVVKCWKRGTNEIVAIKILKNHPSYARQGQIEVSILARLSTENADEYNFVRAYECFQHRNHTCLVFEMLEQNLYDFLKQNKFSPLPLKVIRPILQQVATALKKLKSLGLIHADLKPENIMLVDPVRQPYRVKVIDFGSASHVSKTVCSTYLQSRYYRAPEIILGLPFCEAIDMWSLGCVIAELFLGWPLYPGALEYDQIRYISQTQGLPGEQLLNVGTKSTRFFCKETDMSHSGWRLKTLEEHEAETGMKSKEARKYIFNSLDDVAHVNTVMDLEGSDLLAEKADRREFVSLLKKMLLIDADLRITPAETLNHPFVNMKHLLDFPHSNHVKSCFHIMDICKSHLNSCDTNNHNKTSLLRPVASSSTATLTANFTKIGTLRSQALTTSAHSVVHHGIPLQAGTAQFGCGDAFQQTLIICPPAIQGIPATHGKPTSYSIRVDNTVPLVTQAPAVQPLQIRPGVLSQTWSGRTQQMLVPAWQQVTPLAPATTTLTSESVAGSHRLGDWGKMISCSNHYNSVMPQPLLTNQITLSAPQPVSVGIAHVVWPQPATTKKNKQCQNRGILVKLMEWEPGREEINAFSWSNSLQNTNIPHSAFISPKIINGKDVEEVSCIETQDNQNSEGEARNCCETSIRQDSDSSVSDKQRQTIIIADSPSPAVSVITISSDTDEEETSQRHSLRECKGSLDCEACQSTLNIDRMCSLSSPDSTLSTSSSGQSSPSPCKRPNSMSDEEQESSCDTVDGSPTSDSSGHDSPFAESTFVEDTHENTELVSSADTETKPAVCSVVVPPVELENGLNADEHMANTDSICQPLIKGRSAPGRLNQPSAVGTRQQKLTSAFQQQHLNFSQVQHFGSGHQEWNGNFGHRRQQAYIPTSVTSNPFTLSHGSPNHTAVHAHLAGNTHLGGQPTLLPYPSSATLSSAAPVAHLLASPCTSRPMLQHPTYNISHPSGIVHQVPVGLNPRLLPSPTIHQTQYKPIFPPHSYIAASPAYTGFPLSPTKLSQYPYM

| inhibition [1] [%] | inhibition [2] [%] | inhibition [3] [%] | inhibition [4] [%] | inhibition [5] [%] | inhibition [6] [%] | inhibition [7] [%] | inhibition [8] [%] | inhibition [9] [%] | inhibition [10] [%] | inhibition [11] [%] | inhibition [12] [%] | inhibition [13] [%] | inhibition [14] [%] | inhibition [15] [%] | Structure (SMILES) |
| --- | --- | --- | --- | --- | --- | --- | --- | --- | --- | --- | --- | --- | --- | --- | --- |
| 89.4 | 98 | 73 | 31.9 | 99.4 | -3.87 | 91.4 | 63.8 | 75.7 | 34.2 | 54.8 | 86 | 102 | -0.07 | 59.9 | CS(=O)(=O)c1cccc(Nc2nccc(-c3sc(N4CCOCC4)nc3-c3cccc(NS(=O)(=O)c4c(F)cccc4F)c3)n2)c1 |
| 3.91 | 13.9 | 11.6 | -3.48 | 34.2 | -5.27 | -4.82 | 27.9 | 7.06 | -6.11 | 13.2 | 31.2 | 8.79 | -0.18 | -2.37 | COCCNC(=O)c1ccc2c(c1)nc(-c1cnc(-c3ccc(Cl)cc3)[nH]1)n2CCOC |
| 45.5 | 15.5 | 52 | 57.6 | 65.8 | -1.52 | 18.1 | 88.7 | 67.3 | 7.46 | 9.99 | 73 | 39.5 | 55.2 | 21.7 | CC(C)(C)c1cc(NC(=O)Nc2ccc(Oc3ccncc3)cc2)no1 |
